Test results published in patent US11673910B2, “Macrolides with modified desosamine sugars and uses thereof” (Zikani Therapeutics, Inc., priority 2017, dated 2023).
Values after ≈ are worked out from the molar mass of the structure shown.

Assays:
Format in all cases: cell-based
S. aureus strain MP-12 = test: Broth dilution MIC determination (CLSI) against S. aureus strain MP-12; settings: Staphylococcus aureus, MP12, strain MP-12
Summary of the method: (§1)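 CLSI broth microdilution, macrolide test compounds; MIC reported as category: ≤4 mg/L = +++, 8–<32 mg/L = ++, ≥32 mg/L = +.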

E. coli strain MP-4 = test: Broth dilution MIC determination (CLSI) against E. coli strain MP-4; settings: Escherichia coli, MP4
Summary of the method: as §1

[1] = test system: A. baumannii strain MP-15; test: Broth dilution MIC determination (CLSI) against A. baumannii strain MP-15; settings: Acinetobacter baumannii, MP15
Summary of the method: as §1

[2] = test system: K. pneumoniae strain MP-548; test: Broth dilution MIC determination (CLSI) against K. pneumoniae strain MP-548; settings: Klebsiella pneumoniae, MP548
Summary of the method: as §1

[3] = test system: P. aeruginosa strain MP-3; test: Broth dilution MIC determination (CLSI) against P. aeruginosa strain MP-3; settings: Pseudomonas aeruginosa, MP3
Summary of the method: as §1

Row | MIC (S. aureus strain MP-12) [µg/mL] | MIC (E. coli strain MP-4) [µg/mL] | MIC [1] [µg/mL] | MIC [2] [µg/mL] | MIC [3] [µg/mL] | SMILES
1 | ≤ 4 | ≥ 32 | ≥ 32 | ≥ 32 | ≥ 32 | CC[C@H]1OC(=O)[C@@](C)(F)C(=O)[C@H](C)[C@@H](O[C@@H]2OC(CNCc3cccnc3)CC(N(C)C)C2O)[C@](C)(OC)C[C@@H](C)C(=O)[C@H](C)[C@H]2NC(=O)O[C@@]21C (stereo partly shown) [Compound 101]
2 | ≥ 32 | ≤ 4 | ≥ 32 | ≥ 32 | ≥ 32 | CC[C@H]1OC(=O)C(C)C(=O)[C@H](C)[C@@H](O[C@@H]2OC(CNCc3ccccc3)CC(N(C)C)C2O)[C@](C)(OC)C[C@@H](C)CN[C@H](C)[C@H]2NC(=O)O[C@@]21C (stereo partly shown) [Compound 28]
3 | 8 to 32 (≈ 11.5 to 46 µM) | ≤ 4 | 8 to 32 (≈ 11.5 to 46 µM) | ≤ 4 | ≥ 32 | CC[C@H]1OC(=O)C(C)C(=O)[C@H](C)[C@@H](OC2OC(CNC34CC(C3)C4)CC(N(C)C)C2O)[C@](C)(OC)C[C@@H](C)CN[C@H](C)[C@H]2NC(=O)O[C@@]21C (stereo partly shown) [Compound 141, 3-Descladinosyl-3-oxo-6-O-methyl-N9a-desmethyl-11,12-dideoxy-12,11-(oxycarbonylimino)-6′-(bicyclo[1.1.1]pentanylamino) Azithromycin]
4 | ≥ 32 | 8 to 32 (≈ 12.2 to 48.7 µM) | ≥ 32 | ≥ 32 | ≥ 32 | CCNCC1CC(N(C)C)C(O)C(O[C@@H]2[C@@H](C)C(=O)C(C)C(=O)O[C@H](CC)[C@@]3(C)OC(=O)N[C@@H]3[C@@H](C)NC[C@H](C)C[C@@]2(C)OC)O1 (stereo partly shown) [Compound 108, 3-Descladinosyl-3-oxo-6-O-methyl-N9a-desmethyl-11,12-dideoxy-12,11-(oxycarbonylimino)-6′-ethylamino azithromycin]
5 | 8 to 32 (≈ 11.5 to 45.9 µM) | ≤ 4 | 8 to 32 (≈ 11.5 to 45.9 µM) | 8 to 32 (≈ 11.5 to 45.9 µM) | ≥ 32 | CC[C@H]1OC(=O)C(C)C(=O)[C@H](C)[C@@H](OC2OC(CN(C)C3CC3)CC(N(C)C)C2O)[C@](C)(OC)C[C@@H](C)CN(C)[C@H](C)[C@H]2NC(=O)O[C@@]21C (stereo partly shown) [Compound 157, 3-Descladinosyl-3-oxo-6-O-methyl-11,12-dideoxy-12,11-(oxycarbonylimino)-6′-[N-(methyl)cyclopropylamino]Azithromycin]
6 | ≥ 32 | ≤ 4 | ≥ 32 | 8 to 32 (≈ 11.7 to 46.7 µM) | ≥ 32 | CC[C@H]1OC(=O)C(C)C(=O)[C@H](C)[C@@H](O[C@@H]2O[C@H](CNC(C)C)CC(N(C)C)[C@H]2O)[C@](C)(OC)C[C@@H](C)CN(C)[C@H](C)[C@H]2NC(=O)O[C@@]21C (stereo partly shown) [Compound 164, 3-Descladinosyl-3-oxo-6-O-methyl-11,12-dideoxy-12,11-(oxycarbonylimino)-6′-isopropylamino Azithromycin]
7 | ≥ 32 | ≤ 4 | ≥ 32 | ≥ 32 | ≥ 32 | CC[C@H]1OC(=O)C(C)C(=O)[C@H](C)[C@@H](O[C@@H]2OC(CNCc3ccc(OC)cc3)CC(N(C)C)C2O)[C@](C)(OC)C[C@@H](C)CN[C@H](C)[C@H]2NC(=O)O[C@@]21C (stereo partly shown) [Compound 42]
8 | ≥ 32 | ≥ 32 | ≥ 32 | ≥ 32 | ≥ 32 | CC[C@H]1OC(=O)C(C)C(=O)[C@H](C)[C@@H](O[C@@H]2O[C@H](C(=O)O)CC(N(C)C)[C@H]2O)[C@](C)(OC)C[C@@H](C)CN[C@H](C)[C@H]2NC(=O)O[C@@]21C (stereo partly shown) [Compound 193]
9 | ≥ 32 | ≤ 4 | ≥ 32 | 8 to 32 (≈ 10.9 to 43.4 µM) | ≥ 32 | CC[C@H]1OC(=O)C(C)C(=O)[C@H](C)[C@@H](O[C@@H]2OC(CNCc3ccc(F)cc3)CC(N(C)C)C2O)[C@](C)(OC)C[C@@H](C)CN[C@H](C)[C@H]2NC(=O)O[C@@]21C (stereo partly shown) [Compound 18]
10 | ≥ 32 | ≥ 32 | ≥ 32 | ≥ 32 | ≥ 32 | CC[C@H]1OC(=O)C(C)C(=O)[C@H](C)[C@@H](OC2OC(CNCCO)CC(N(C)C)C2O)[C@](C)(OC)C[C@@H](C)CN[C@H](C)[C@H]2NC(=O)O[C@@]21C (stereo partly shown) [Compound 115, 3-Descladinosyl-3-oxo-6-O-methyl-N9a-desmethyl-11,12-dideoxy-12,11-(oxycarbonylimino)-6′-(2-hydroxyethylamino) Azithromycin]
11 | ≥ 32 | ≤ 4 | ≥ 32 | 8 to 32 (≈ 11.4 to 45.7 µM) | ≥ 32 | CC[C@H]1OC(=O)C(C)C(=O)[C@H](C)[C@@H](OC2OC(CNCC(=O)OC)CC(N(C)C)C2O)[C@](C)(OC)C[C@@H](C)CN[C@H](C)[C@H]2NC(=O)O[C@@]21C (stereo partly shown) [Compound 127, 3-Descladinosyl-3-oxo-6-O-methyl-N9a-desmethyl-11,12-dideoxy-12,11-(oxycarbonylimino)-6′-(methyl aminomethylcarboxylate) Azithromycin]
12 | ≥ 32 | ≤ 4 | 8 to 32 (≈ 11.5 to 46 µM) | 8 to 32 (≈ 11.5 to 46 µM) | ≥ 32 | CC[C@H]1OC(=O)C(C)C(=O)[C@H](C)[C@@H](OC2OC(CN3CC4CC4C3)CC(N(C)C)C2O)[C@](C)(OC)C[C@@H](C)CN[C@H](C)[C@H]2NC(=O)O[C@@]21C (stereo partly shown) [Compound 137, 3-Descladinosyl-3-oxo-6-O-methyl-N9a-desmethyl-11,12-dideoxy-12,11-(oxycarbonylimino)-6′-azabicyclo[3.1.0]hexan-3″-ylamino Azithromycin]
13 | 8 to 32 (≈ 11.7 to 46.9 µM) | ≤ 4 | 8 to 32 (≈ 11.7 to 46.9 µM) | 8 to 32 (≈ 11.7 to 46.9 µM) | ≥ 32 | CC[C@H]1OC(=O)C(C)C(=O)[C@H](C)[C@@H](OC2OC(CN(C)C3CC3)CC(N(C)C)C2O)[C@](C)(OC)C[C@@H](C)CN[C@H](C)[C@H]2NC(=O)O[C@@]21C (stereo partly shown) [Compound 129, 3-Descladinosyl-3-oxo-6-O-methyl-N9a-desmethyl-11,12-dideoxy-12,11-(oxycarbonylimino)-6′-(N-methylcyclopropylamino) Azithromycin]
14 | ≥ 32 | ≥ 32 | ≥ 32 | ≥ 32 | ≥ 32 | CC[C@H]1OC(=O)C(C)C(=O)[C@H](C)[C@@H](O[C@@H]2OC(CNCc3ccc(S(C)(=O)=O)cc3)CC(N(C)C)C2O)[C@](C)(OC)C[C@@H](C)CN[C@H](C)[C@H]2NC(=O)O[C@@]21C (stereo partly shown) [Compound 45]
15 | ≥ 32 | ≤ 4 | ≥ 32 | 8 to 32 (≈ 11.5 to 45.9 µM) | ≥ 32 | CC[C@H]1OC(=O)C(C)C(=O)[C@H](C)[C@@H](O[C@@H]2O[C@H](C(C)NCC3CC3)CC(N(C)C)[C@H]2O)[C@](C)(OC)C[C@@H](C)CN[C@H](C)[C@H]2NC(=O)O[C@@]21C (stereo partly drawn) [Compound 178, 3-Descladinosyl-3-oxo-6-O-methyl-N9a-desmethyl-11,12-dideoxy-12,11-(oxycarbonylimino)-6′-((R,S)-(cyclopropylmethylamino)ethyl) Azithromycin]
16 | ≥ 32 | ≤ 4 | ≥ 32 | ≤ 4 | ≥ 32 | CC[C@H]1OC(=O)C(C)C(=O)[C@H](C)[C@@H](OC2OC(CNCCF)CC(N(C)C)C2O)[C@](C)(OC)C[C@@H](C)CN[C@H](C)[C@H]2NC(=O)O[C@@]21C (stereo partly shown) [Compound 111, 3-Descladinosyl-3-oxo-6-O-methyl-N9a-desmethyl-11,12-dideoxy-12,11-(oxycarbonylimino)-6′-(2-fluoroethylamino) Azithromycin]

Row | SMILES | MIC (S. aureus strain MP-12) [µg/mL] | MIC (E. coli strain MP-4) [µg/mL] | MIC [1] [µg/mL] | MIC [2] [µg/mL] | MIC [3] [µg/mL]
17 | CC[C@H]1OC(=O)[C@@]2(C)CCOC(C)(C[C@@H](C)CN[C@H](C)[C@H]3NC(=O)O[C@@]31C)[C@H](O[C@@H]1OC(C)CC(N(C)C)C1O)[C@@H](C)C2=O (stereo partly shown) [Compound 219] | ≤ 4 | ≤ 4 | 8 to 32 (≈ 12.8 to 51.1 µM) | ≤ 4 | ≥ 32
18 | CC[C@H]1OC(=O)[C@@]2(C)CCOC(C)(C[C@@H](C)CN[C@H](C)[C@H]3NC(=O)O[C@@]31C)[C@H](O[C@@H]1O[C@H](CNCC(F)(F)F)C[C@H](N(C)C)[C@H]1O)[C@@H](C)C2=O [Compound 206] | ≤ 4 | ≤ 4 | ≥ 32 | 8 to 32 (≈ 11.1 to 44.3 µM) | ≥ 32
19 | CC[C@H]1OC(=O)[C@]2(C)CCO[C@](C)(C[C@@H](C)CN[C@H](C)[C@H]3NC(=O)O[C@@]31C)[C@H](O[C@@H]1O[C@H](CO)C[C@H](N(C)C)[C@H]1O)[C@@H](C)C2=O [Compound 194] | ≥ 32 | ≥ 32 | ≥ 32 | ≥ 32 | ≥ 32
20 | CC[C@H]1OC(=O)[C@@]2(C)CCOC(C)(C[C@@H](C)CN(CC)[C@H](C)[C@H]3NC(=O)O[C@@]31C)[C@H](O[C@@H]1OC(C)CC(N(C)C)C1O)[C@@H](C)C2=O (stereo partly shown) [Compound 221] | ≤ 4 | ≤ 4 | ≥ 32 | ≤ 4 | ≥ 32
21 | CC[C@H]1OC(=O)[C@@]2(C)CCO[C@](C)(C[C@@H](C)CN[C@H](C)[C@H]3NC(=O)O[C@@]31C)[C@H](O[C@@H]1O[C@H](CNC34CC(C3)C4)C[C@H](N(C)C)[C@H]1O)[C@@H](C)C2=O [Compound 204] | ≤ 4 | ≤ 4 | 8 to 32 (≈ 11.3 to 45.3 µM) | ≤ 4 | ≥ 32
22 | C=CC1CC(N(C)C)C(O)[C@H](O[C@@H]2[C@@H](C)C(=O)[C@]3(C)CCOC2(C)C[C@@H](C)CN[C@H](C)[C@H]2NC(=O)O[C@]2(C)[C@@H](CC)OC3=O)O1 (stereo partly shown) [Compound 211] | ≤ 4 | ≤ 4 | ≤ 4 | ≤ 4 | ≥ 32
23 | CC[C@H]1OC(=O)[C@@]2(C)CCOC(C)(C[C@@H](C)CN(C3CC3)[C@H](C)[C@H]3NC(=O)O[C@@]31C)[C@H](O[C@@H]1OC(C)CC(N(C)C)C1O)[C@@H](C)C2=O (stereo partly shown) [Compound 210] | ≤ 4 | 8 to 32 (≈ 12 to 48.1 µM) | ≥ 32 | ≥ 32 | ≥ 32
